The assay relates to UMSCC22A cells. The assay is described as follows: Cell death after PDT by propidium iodide fluorometry. It counts as cell-based. Conditions: after irradiation; after 5 h of PDT. Here is the method:
After exposure to red light, cells were incubated for various periods of time prior to analysis.
Cell death was assessed by propidium iodide (PI) fluorometry using a multi-well fluorescence plate reader, as previously described. Human head and neck cancer cells (UMSCC22A) were plated on 96-well plates (15,000 cells/well) in Dulbecco's Modified Eagle's Medium (DMEM) (Gibco) supplemented with 10% fetal bovine serum (FBS) and penicillin/streptomycin (complete culture medium) in a humidified 37° C. incubator at 5% CO2/95% air. […] Before exposure to light, cells were changed to fresh medium supplemented with PI (30 μM) and Insulin-Transferrin-Selenium-X (ITX) reagent [insulin (10 μg/ml), transferrin (5.5 μg/m), selenium (6.7 ng/ml), ethanolamine (0.2 mg/ml)] (Gibco) but omitting FBS. PI fluorescence was measured at frequent intervals using 530 nm excitation (25 nm band pass) and 620 nm emission (40 nm band pass) filters. Between measurements, microtiter plates were placed in a 37° C. incubator. At the end of the experiment, digitonin (200 μM) was added to each well to permeabilize all cells and label all nuclei with PI. Cell viability determined by PI fluorometry is essentially the same as cell viability determined by trypan blue exclusion.

In the case of Silicon phthalocyanine [Pc 4], the cell killing came out at 35%.

The record behind these values is US9283281B2, “Preparation of triple responsive nanogel system and its application” (University of South Carolina, priority 2013, dated 2016).
